Data: ChEMBL document CHEMBL2010677, “Anti-inflammatory and PPAR transactivational effects of secondary metabolites from the roots of Asarum sieboldii” (Bioorg Med Chem Lett, 2012)

Experiments:
[1] = target: T1, Peroxisome proliferator-activated receptor delta (Homo sapiens, UniProt Q03181); assay: Transactivation of GAL4-fused PPARbeta LBD expressed in HepG2 cells after 20 hrs by luminescence assay; assay type: cell-based
T1 sequence (Q03181 whole entry): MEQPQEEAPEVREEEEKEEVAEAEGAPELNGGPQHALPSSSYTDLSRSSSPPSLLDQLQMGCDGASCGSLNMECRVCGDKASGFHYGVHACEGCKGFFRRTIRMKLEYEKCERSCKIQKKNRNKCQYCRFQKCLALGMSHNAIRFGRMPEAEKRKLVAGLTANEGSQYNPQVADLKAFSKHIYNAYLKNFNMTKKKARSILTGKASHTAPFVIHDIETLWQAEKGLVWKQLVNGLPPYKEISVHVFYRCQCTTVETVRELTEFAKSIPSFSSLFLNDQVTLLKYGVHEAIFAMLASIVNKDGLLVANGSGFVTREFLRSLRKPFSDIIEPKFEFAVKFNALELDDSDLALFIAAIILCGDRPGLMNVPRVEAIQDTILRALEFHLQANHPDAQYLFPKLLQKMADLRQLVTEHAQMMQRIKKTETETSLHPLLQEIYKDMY

[2] = (§1) Transactivation of PPAR expressed in HepG2 cells after 20 hrs by luminescence assay; assay type: cell-based; details: HepG2, 20 h
[3] = target: T2, Peroxisome proliferator-activated receptor alpha (Homo sapiens, UniProt Q07869); assay: (§2) Transactivation of GAL4-fused PPARalpha LBD expressed in HepG2 cells after 20 hrs by luminescence assay; assay type: cell-based
T2 sequence (Q07869 whole entry): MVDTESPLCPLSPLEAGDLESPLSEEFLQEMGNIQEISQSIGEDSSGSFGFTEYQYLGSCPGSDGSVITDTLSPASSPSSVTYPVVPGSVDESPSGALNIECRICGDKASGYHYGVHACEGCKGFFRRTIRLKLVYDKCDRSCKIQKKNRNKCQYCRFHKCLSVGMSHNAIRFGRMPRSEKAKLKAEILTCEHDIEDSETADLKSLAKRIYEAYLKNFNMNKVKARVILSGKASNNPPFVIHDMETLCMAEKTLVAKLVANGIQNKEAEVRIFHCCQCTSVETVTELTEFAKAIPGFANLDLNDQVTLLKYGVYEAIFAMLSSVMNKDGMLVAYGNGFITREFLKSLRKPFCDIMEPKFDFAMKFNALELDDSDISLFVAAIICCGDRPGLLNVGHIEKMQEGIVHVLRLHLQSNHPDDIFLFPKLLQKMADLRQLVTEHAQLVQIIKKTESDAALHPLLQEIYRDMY

HepG2 [4] = assay: Cytotoxicity against human HepG2 cells by MTT assay; assay type: cell-based
[5] = target: T3, Peroxisome proliferator-activated receptor gamma (Homo sapiens, UniProt P37231); assay: Transactivation of GAL4-fused PPARgamma LBD expressed in HepG2 cells after 20 hrs by luminescence assay; assay type: cell-based
T3 sequence (P37231 whole entry): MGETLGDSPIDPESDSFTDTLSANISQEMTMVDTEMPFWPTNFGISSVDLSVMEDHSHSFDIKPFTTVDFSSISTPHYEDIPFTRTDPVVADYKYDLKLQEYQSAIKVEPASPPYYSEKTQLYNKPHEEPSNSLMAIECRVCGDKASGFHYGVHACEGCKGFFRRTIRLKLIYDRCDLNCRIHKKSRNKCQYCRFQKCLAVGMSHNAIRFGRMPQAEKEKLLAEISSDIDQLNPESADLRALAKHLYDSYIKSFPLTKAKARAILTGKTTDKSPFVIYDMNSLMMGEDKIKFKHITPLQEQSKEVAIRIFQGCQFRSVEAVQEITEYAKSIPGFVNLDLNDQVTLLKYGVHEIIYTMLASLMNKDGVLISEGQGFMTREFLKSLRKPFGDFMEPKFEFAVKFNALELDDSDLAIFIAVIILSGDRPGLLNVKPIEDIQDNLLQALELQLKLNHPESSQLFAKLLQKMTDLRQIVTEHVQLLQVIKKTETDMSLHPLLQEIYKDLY

[6] = target: T4, Peroxisome proliferator-activated receptor alpha (Homo sapiens) (UniProt Q07869); assay: as §2; assay type: cell-based
T4 sequence (whole entry): T2 sequence (Q07869 whole entry)

HepG2 [7] = assay: Inhibition of NFkappaB-mediated iNOS mRNA expression in human TNFalpha-stimulated human HepG2 cells pretreated for 1 hr before TNFalpha challenge measured after 6 hrs by RT-PCR analysis; assay type: cell-based
HepG2 [8] = assay: Inhibition of NFkappaB-mediated COX2 mRNA expression in human TNFalpha-stimulated human HepG2 cells by RT-PCR analysis; assay type: cell-based
[9] = Inhibition of TNFalpha-induced NFkappaB transcriptional activity in human HepG2 cells pretreated for 1 hr before TNFalpha challenge by luciferase reporter gene analysis
HepG2 [10] = assay: as §1; assay type: cell-based

Compound | EC50 [1] [µM] | EC50 [2] [µM] | EC50 [3] [µM] | Activity (HepG2 [4]) | EC50 [5] [µM] | Activity [6] | inhibition (HepG2 [7]) | inhibition (HepG2 [8]) | IC50 [9] [µM] | Activity (HepG2 [10])
CCCc1c(OCCCOc2ccc(OCC(=O)O)cc2)ccc(C(C)=O)c1O | 0.64 | – | – | – | – | – | – | – | – | –
COc1cc([C@H]2OC[C@H]3[C@@H]2CO[C@H]3c2ccc3c(c2)OCO3)cc(OC)c1O | 47.6 | 6.2 | > 60 | Non-toxic | 22.6 | – | – | – | – | –
CC(C)(O)C1=C[C@@H](O)[C@@](C)(O)CC1 | 48.5 | 4.3 | 19.5 | Non-toxic | 21.7 | Dose-dependent effect | – | – | – | –
COc1ccc([C@@H](O)[C@H](O)CO)cc1OC | 22.6 | 20.3 | 15.7 | Non-toxic | 19.3 | Dose-dependent effect | – | – | – | –
C/C=C\CC/C=C/C=C/C(=O)NCC(C)C | 4.9 | 2 | 4 | Non-toxic | 3.6 | Dose-dependent effect | – | – | – | –
CC=C/C=C\CC/C=C/C=C/C(=O)NCC(C)C | 51.1 | 58.6 | 46.1 | Non-toxic | 52.3 | – | Dose-dependent effect | Dose-dependent effect | 6.4 | –
CC1=CC(=O)C2C(C1=O)C2(C)C (racemic) | – | > 60 | – | Non-toxic | – | – | – | – | – | –
c1cc2c(cc1[C@H]1OC[C@H]3[C@@H]1CO[C@H]3c1ccc3c(c1)OCO3)OCO2 [ASARININ] | – | > 60 | – | Non-toxic | – | – | Dose-dependent effect | Dose-dependent effect | 7.1 | –
CC(C)(Oc1ccc(CCNC(=O)c2ccc(Cl)cc2)cc1)C(=O)O [BEZAFIBRATE] | – | 1.05 | – | – | – | – | – | – | – | –
CC(C)(Oc1ccc(C2CC2(Cl)Cl)cc1)C(=O)O (stereo not drawn) [CIPROFIBRATE] | – | – | 0.9 | – | – | – | – | – | – | –
C=CCc1ccc(OC)c(OC)c1 [METHYLEUGENOL] | 50.6 | 28 | 46.5 | Non-toxic | 40 | – | – | – | – | –
COc1cc([C@H]2OC[C@H]3[C@@H]2CO[C@H]3c2ccc(O)c(OC)c2)ccc1O [PINORESINOL] | 49.5 | 10.3 | > 60 | Non-toxic | 58.6 | – | – | – | – | Dose-dependent effect
COc1cc([C@@H]2OC[C@@H]3[C@H]2CO[C@H]3c2ccc3c(c2)OCO3)ccc1O [PIPERITOL] | 33.9 | 20.9 | 53.2 | Non-toxic | 18.9 | – | – | – | – | –
COc1cc([C@H]2OC[C@@H]3[C@H]2CO[C@H]3c2ccc3c(c2)OCO3)ccc1O [PLUVIATILOL] | 53.1 | 1.7 | > 60 | Non-toxic | 48.7 | – | – | – | – | –
c1cc2c(cc1[C@H]1OC[C@H]3[C@@H]1CO[C@@H]3c1ccc3c(c1)OCO3)OCO2 [SESAMIN] | – | > 60 | – | Non-toxic | – | – | Dose-dependent effect | Dose-dependent effect | 9.4 | –
O=C(O)c1cc(/N=N/c2ccc(S(=O)(=O)Nc3ccccn3)cc2)ccc1O [SULFASALAZINE] | – | – | – | – | – | – | – | – | 0.9 | –
